In ChEMBL document CHEMBL1157388, “Recent developments in fragment-based drug discovery” (J Med Chem, 2008) one finds Kd, IC50 and Ki data, which are given here for 15 compounds.

pIC50, pKd, pKi: −log10 of the molar value.

For one assay, the target named is Carbonic anhydrase 2 (Bos taurus, UniProt P00921).
For the next assay, the target named is T1, Caspase-1 (Homo sapiens, UniProt P29466).
T1 sequence (P29466 whole entry): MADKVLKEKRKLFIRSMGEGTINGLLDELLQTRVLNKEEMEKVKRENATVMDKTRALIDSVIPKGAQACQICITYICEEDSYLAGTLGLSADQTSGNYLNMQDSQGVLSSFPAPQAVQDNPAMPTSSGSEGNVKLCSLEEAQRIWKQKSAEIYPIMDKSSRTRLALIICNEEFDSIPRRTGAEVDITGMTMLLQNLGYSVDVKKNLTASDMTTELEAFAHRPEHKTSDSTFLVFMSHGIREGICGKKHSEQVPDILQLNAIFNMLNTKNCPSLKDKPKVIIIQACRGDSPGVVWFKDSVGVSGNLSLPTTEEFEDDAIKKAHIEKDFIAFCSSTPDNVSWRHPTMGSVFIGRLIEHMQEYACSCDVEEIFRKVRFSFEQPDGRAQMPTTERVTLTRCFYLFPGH
Kind of assay: Inhibition of caspase 1.

The target in another assay is T2, Aurora kinase A (Homo sapiens, UniProt O14965).
T2 sequence (O14965 whole entry): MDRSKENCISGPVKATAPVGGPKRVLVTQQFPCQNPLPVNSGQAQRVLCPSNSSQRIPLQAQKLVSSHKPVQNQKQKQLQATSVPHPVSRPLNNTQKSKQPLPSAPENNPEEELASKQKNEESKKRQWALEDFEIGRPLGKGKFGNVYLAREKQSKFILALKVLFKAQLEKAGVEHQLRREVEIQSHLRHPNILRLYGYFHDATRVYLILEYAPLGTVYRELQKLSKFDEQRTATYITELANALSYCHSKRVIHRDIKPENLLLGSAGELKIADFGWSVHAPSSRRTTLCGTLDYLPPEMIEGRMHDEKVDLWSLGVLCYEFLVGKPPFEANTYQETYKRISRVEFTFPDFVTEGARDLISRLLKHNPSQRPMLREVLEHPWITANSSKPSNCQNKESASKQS

The target of assay [1] is Heat shock protein HSP 90-beta (Homo sapiens, UniProt P08238).
Chain of Heat shock protein HSP 90-beta (P08238 whole entry): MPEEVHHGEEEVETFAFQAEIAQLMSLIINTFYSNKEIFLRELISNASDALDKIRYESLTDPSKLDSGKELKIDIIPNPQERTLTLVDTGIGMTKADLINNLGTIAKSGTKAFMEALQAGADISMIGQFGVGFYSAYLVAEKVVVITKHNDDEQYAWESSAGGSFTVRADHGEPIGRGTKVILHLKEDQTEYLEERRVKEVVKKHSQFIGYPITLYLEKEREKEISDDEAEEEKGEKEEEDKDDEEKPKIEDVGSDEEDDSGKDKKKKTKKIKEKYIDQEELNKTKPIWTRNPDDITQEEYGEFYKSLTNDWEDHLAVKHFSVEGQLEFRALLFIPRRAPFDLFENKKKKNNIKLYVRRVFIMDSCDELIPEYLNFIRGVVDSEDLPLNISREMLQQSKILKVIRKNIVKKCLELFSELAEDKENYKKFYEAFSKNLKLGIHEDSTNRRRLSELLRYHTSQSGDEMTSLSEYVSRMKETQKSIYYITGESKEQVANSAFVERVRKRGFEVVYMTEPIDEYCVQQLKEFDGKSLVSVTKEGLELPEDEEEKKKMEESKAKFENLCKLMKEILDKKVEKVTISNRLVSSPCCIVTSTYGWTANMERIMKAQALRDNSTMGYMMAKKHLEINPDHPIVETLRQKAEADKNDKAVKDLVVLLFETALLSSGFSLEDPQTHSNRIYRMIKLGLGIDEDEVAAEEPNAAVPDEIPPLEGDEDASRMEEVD
Assay [2] has as its target Urokinase-type plasminogen activator (Homo sapiens, UniProt P00749).
The target of assay [3] is T3, Queuine tRNA-ribosyltransferase catalytic subunit 1 (Homo sapiens, UniProt Q9BXR0).
T3 sequence (Q9BXR0 whole entry): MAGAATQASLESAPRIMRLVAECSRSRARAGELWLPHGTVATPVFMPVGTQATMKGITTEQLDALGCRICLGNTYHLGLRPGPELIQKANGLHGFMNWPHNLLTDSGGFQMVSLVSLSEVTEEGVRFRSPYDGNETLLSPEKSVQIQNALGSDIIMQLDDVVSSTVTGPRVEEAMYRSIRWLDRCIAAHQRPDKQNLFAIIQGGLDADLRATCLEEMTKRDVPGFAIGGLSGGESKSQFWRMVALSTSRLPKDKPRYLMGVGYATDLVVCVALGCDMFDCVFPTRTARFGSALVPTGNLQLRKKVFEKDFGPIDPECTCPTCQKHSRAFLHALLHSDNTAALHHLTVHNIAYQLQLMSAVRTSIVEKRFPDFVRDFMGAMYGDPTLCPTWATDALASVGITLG

Another assay has as its target Prothrombin (Homo sapiens, UniProt P00734). Kind of assay: Inhibition of thrombin.
Assay [4] concerns the target RAC-alpha serine/threonine-protein kinase (Homo sapiens, UniProt P31749). Kind of assay: Inhibition of protein kinase B.
A short description of assay [5]: Inhibition of PDE4.

Chain of Carbonic anhydrase 2 (P00921 whole entry): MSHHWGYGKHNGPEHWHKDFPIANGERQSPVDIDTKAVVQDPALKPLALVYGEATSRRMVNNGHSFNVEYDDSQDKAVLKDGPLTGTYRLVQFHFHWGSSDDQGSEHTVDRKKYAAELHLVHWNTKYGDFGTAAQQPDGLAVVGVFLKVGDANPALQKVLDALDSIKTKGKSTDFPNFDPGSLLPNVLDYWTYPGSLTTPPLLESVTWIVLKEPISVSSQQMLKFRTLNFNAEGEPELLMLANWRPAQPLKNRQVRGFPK
Chain of RAC-alpha serine/threonine-protein kinase (P31749 whole entry): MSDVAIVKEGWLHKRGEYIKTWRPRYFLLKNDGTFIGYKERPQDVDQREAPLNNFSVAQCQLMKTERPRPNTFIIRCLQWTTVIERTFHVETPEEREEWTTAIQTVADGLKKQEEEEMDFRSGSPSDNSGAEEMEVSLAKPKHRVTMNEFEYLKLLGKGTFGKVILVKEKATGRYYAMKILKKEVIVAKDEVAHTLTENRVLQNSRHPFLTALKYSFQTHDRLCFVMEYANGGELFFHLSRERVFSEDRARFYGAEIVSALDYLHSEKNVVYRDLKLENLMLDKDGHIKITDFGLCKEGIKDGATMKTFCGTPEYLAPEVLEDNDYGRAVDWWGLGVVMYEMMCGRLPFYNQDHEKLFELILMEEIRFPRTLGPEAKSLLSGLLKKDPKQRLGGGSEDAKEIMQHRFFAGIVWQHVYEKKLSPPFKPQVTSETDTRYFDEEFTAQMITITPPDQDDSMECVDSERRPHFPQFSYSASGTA

For `CC(C)[C@@H](C(=O)N1CC2CCC(CC2)C1)n1cc(-c2ccc(S(N)(=O)=O)cc2)nn1`, the pKd (usually the Kd on a negative log10 scale, so that one unit is a factor of ten) at Carbonic anhydrase 2 was 9.70.
With `O=C[C@H](CC(=O)O)NC(=O)CCCCCNC(=O)c1ccc(Nc2cnc3ccccc3n2)cc1`, the pIC50 (as a rule, −log10 of the IC50, conventionally taken in molar units) against Caspase-1 was 6.72.
The compound `COc1cc2[nH]c3ncnc(Cl)c3c2cc1OC` gave a pIC50 against Aurora kinase A of 5.52.
With `O=C[C@H](CC(=O)O)NC(=O)c1ccc(CNC(=O)c2ccc(Nc3cnc4ccccc4n3)cc2)nc1`, the pIC50 on Caspase-1 was 8.30.
As to `O=C1OCC/C1=C\Nc1ccccc1`, the pKd in [1] was 3.82.
Turning to `COc1cc2[nH]c3ncnc(N4CCN(C(=S)Nc5ccc(S(=O)(=O)Nc6ncccn6)cc5)CC4)c3c2cc1OC`, the pIC50 against Aurora kinase A is 7.03.
Take `Nc1nc2cc(O)ccc2[nH]1`: the pIC50 in assay [2] is 3.70.
Take `Cc1cc(C#Cc2ccccc2/C=N/N2CCOC2=O)nc(N)n1`: the pKd in [1] was 5.40.
`Nc1nc2ccccc2c(=O)[nH]1`: in assay [3], the pKi (commonly −log10 of the Ki, conventionally taken in molar units) is 5.68.
The compound `COc1ccc(CCc2c3nc[nH]c3cc3c(=O)[nH]c(N)nc23)cc1` gave a negative logarithm of the Ki (pKi) in [3] of 5.43.
In turn, `C#Cc1ccc(S(N)(=O)=O)cc1` had a pKd at Carbonic anhydrase 2 of 7.43.
The compound `Nc1ccc(S(=O)(=O)Nc2ncccn2)cc1` [SULFADIAZINE] showed a pIC50 at Aurora kinase A of 4.68.
In turn, `COc1ccc(S(=O)(=O)NC[C@@H](O)[C@H](Cc2ccccc2)NCc2cc(Cl)ccc2-n2cnnn2)cc1` had a pIC50 against Prothrombin of 8.40.
The compound `c1ccc(-c2cn[nH]c2)cc1` gave a pIC50 in assay [4] of 3.87.
Take `CCOC(=O)c1c(C)nn(-c2ccccc2Cl)c1C`: the pIC50 in [5] is 7.72.
